# Assay results published in US11274332B2, “Methods of administering 3,4-diaminopyridine” (SERB SA, priority 2011, dated 2022).
# Like-named read-outs stand apart in the source and are kept apart here.
# Assay: Example 18 Part 2: multiple dose PK (20 mg QID) of 3,4-DAP and 3-N-acetyl metabolite in slow and fast acetylators
# Assay type: in vivo, human
# Conditions: for AUC(0-t) / Cmax / Tmax / Vd/F / half-life: both sexes, human, plasma, oral, 20 mg; for Tmax: read-out: Mean Tmax; for Vd/F: read-out: Mean Vz/F; for half-life: read-out: Mean t1/2 (converted)
# Protocol: The following method was used to analyze concentrations of 3,4-diaminopyridine and N-(4-aminopyridin-3-yl)acetamide in plasma and urine samples for the experiments in Example 18. In the LC/MS/MS method, the human plasma and urine samples were extracted using acetonitrile containing 0.1% formic acid. Samples were analyzed by using HPLC with positive ion electrospray MS/MS detection. The column was an Atlantis HILIC Silica column (3 μm, 3×50 mm) at a temperature of 40° C. Mobile phase A was water containing ammonium formate (20 mM) and 0.1% formic acid. Mobile phase B was acetonitrile/isopropanol (90/10; v/v) containing 0.1% formic acid. The flow rate was 0.90 mL/minute. The gradient conditions for human plasma and urine samples were as follows:
# The LC/MS/MS method was validated to quantify 3,4-DAP in human plasma in the linear calibration range of 0.500 to 500 ng/mL and from 1.00 to 1000 ng/mL for the 3-N-acetyl metabolite.
# The primary objective of the study was to assess the safety and tolerability of 3,4-DAP phosphate after single and multiple doses. The secondary objectives of the study were • Part 1 only: To determine the dose-related PK profile of amifampridine and of 3-N-acetyl amifampridine after single, escalating doses of 3,4-DAP phosphate • Part 2 only: To assess the steady-state plasma PK and accumulation of amifampridine and of 3-N-acetyl amifampridine over multiple days of dosing with 3,4-DAP phosphate An exploratory objective was to examine the overall activity of the N-acetyl transferase enzymes on the metabolism of amifampridine by assessing the PK of amifampridine and 3-N-acetyl amifampridine with phenotypic acetylation activity and genotyping determination of NAT2 gene polymorphisms. Study Design and Plan
# This open-label study in healthy subjects (male and female) was conducted in 2 parts. A total of 26 healthy male and female subjects, 12 in Part 1 (at least 5 of each sex), 4 in Part 2 Group 1, and 10 in Part 2 Group 2 (at least 4 of each sex) were enrolled into the study. The same subjects were not enrolled to participate in both parts. Subjects in Part 2 were dosed only after all subjects of Part 1 completed dosing and at least 24-hours of follow-up safety evaluation after the last dose were completed.
# All subjects were characterized for their metabolic acetylation phenotype and NAT2 genotype in order to divide subjects into two groups of acetylators. Volunteers were genetically typed for highly variant alleles of the N-acetyl transferase 2 enzyme (NAT2) domain on chromosome 8 (according to Example 16) and were phenotyped for acetylation rates with a caffeine challenge test (according to Example 15a). Approximately equal numbers of slow and fast acetylators (as defined by a caffeine challenge test in Example 15a) were enrolled in each group. In Part 2, very slow acetylators with NAT2 activity (ratio 1, Example 15a) below 0.06 were excluded from participation in the study. In each part of the study, subjects were assessed for PK, safety, and tolerability and all doses were administered within 30 min of ingestion of a meal or a snack.
# Part 2, Group 1: Four sentinel subjects were selected after determining their acetylator status. Two were fast acetylators and two were slow acetylators. All four were dosed on Day 1 with 4 oral doses of 20 mg of 34-DAP phosphate (given at 4-hour dosing intervals). On Days […] and 2, safety and tolerability data was collected. Subjects left the clinic on Day 2. The safety and tolerability data collected for these 4 sentinel subjects were reviewed. The safety and tolerability results of Days 1 and 2 for these subjects were acceptable and thus Part 2 Group 2 was commenced. Minimally acceptable safety was defined as the absence of clinical seizure activity. Subjects in Group 1 returned to the clinic for their follow-up assessments 2-4 days following their last dose.
# Each subject was given a final morning dose of 20 mg 3,4-DAP phosphate on Day 4. […]
# [1] = Day 1, Dose 1, fast acetylators, 20 mg QID
# [2] = Day 1, Dose 1, slow acetylators, 20 mg QID
# [3] = Day 1, Dose 2, fast acetylators, 20 mg QID
# [4] = Day 1, Dose 2, slow acetylators, 20 mg QID
# [5] = Day 1, Dose 3, fast acetylators, 20 mg QID
# [6] = Day 1, Dose 3, slow acetylators, 20 mg QID
# [7] = Day 1, Dose 4, fast acetylators, 20 mg QID
# [8] = Day 1, Dose 4, slow acetylators, 20 mg QID
# [9] = Day 3, Dose 1, fast acetylators, 20 mg QID
# [10] = Day 3, Dose 1, slow acetylators, 20 mg QID
# [11] = Day 3, Dose 2, fast acetylators, 20 mg QID
# [12] = Day 3, Dose 2, slow acetylators, 20 mg QID
# [13] = Day 3, Dose 3, fast acetylators, 20 mg QID
# [14] = Day 3, Dose 3, slow acetylators, 20 mg QID
# [15] = Day 3, Dose 4, fast acetylators, 20 mg QID
# [16] = Day 3, Dose 4, slow acetylators, 20 mg QID
# [17] = Day 4, 20 mg single dose, fast acetylators
# [18] = Day 4, 20 mg single dose, slow acetylators
smiles,measurement,setting,value
"Nc1ccncc1N [3,4-DAP, 3,4-diaminopyridine]",Mean CL/F,[1],898 L/h
same,Mean CL/F,[2],152 L/h
same,Mean CL/F,[3],757 L/h
same,Mean CL/F,[4],107 L/h
same,Mean CL/F,[5],879 L/h
same,Mean CL/F,[6],117 L/h
same,Mean CL/F,[7],885 L/h
same,Mean CL/F,[8],101 L/h
same,Mean CL/F,[9],973 L/h
same,Mean CL/F,[10],124 L/h
same,Mean CL/F,[11],607 L/h
same,Mean CL/F,[12],92.9 L/h
same,Mean CL/F,[13],817 L/h
same,Mean CL/F,[14],103 L/h
same,Mean CL/F,[15],795 L/h
same,Mean CL/F,[16],73.2 L/h
same,Mean CL/F,[17],673 L/h
same,Mean CL/F,[18],108 L/h
same,AUC(0-t),"Day 1, Dose 1, fast acetylators, 20 mg QID, read-out: Mean AUC0-4",23.5 ng·h/mL
same,Cmax,"Day 1, Dose 1, fast acetylators, 20 mg QID, read-out: Mean Cmax",24.4 ng/mL
same,Tmax,[1],48.5 min
same,Vd/F,[1],1330 L
same,half-life,[1],67.2 min
same,AUC(0-t),"Day 1, Dose 1, slow acetylators, 20 mg QID, read-out: Mean AUC0-4",115 ng·h/mL
same,Cmax,"Day 1, Dose 1, slow acetylators, 20 mg QID, read-out: Mean Cmax",74.8 ng/mL
same,Tmax,[2],67.2 min
same,Vd/F,[2],299 L
same,half-life,[2],83.4 min
same,AUC(0-t),"Day 1, Dose 1-4, fast acetylators, 20 mg QID, read-out: Mean AUC0-24",97.9 ng·h/mL
same,AUC(0-t),"Day 1, Dose 1-4, slow acetylators, 20 mg QID, read-out: Mean AUC0-24",630 ng·h/mL
same,AUC(0-t),"Day 1, Dose 2, fast acetylators, 20 mg QID, read-out: Mean AUC0-4",22.5 ng·h/mL
same,Cmax,"Day 1, Dose 2, fast acetylators, 20 mg QID, read-out: Mean Cmax",13.3 ng/mL
same,Tmax,[3],64.2 min
same,Vd/F,[3],1340 L
same,half-life,[3],78.6 min
same,AUC(0-t),"Day 1, Dose 2, slow acetylators, 20 mg QID, read-out: Mean AUC0-4",152 ng·h/mL
same,Cmax,"Day 1, Dose 2, slow acetylators, 20 mg QID, read-out: Mean Cmax",83.7 ng/mL
same,Tmax,[4],68.4 min
same,Vd/F,[4],293 L
same,half-life,[4],116 min
same,AUC(0-t),"Day 1, Dose 3, fast acetylators, 20 mg QID, read-out: Mean AUC0-4",24.1 ng·h/mL
same,Cmax,"Day 1, Dose 3, fast acetylators, 20 mg QID, read-out: Mean Cmax",16.8 ng/mL
same,Tmax,[5],35 min
same,Vd/F,[5],1720 L
same,half-life,[5],78 min
same,AUC(0-t),"Day 1, Dose 3, slow acetylators, 20 mg QID, read-out: Mean AUC0-4",140 ng·h/mL
same,Cmax,"Day 1, Dose 3, slow acetylators, 20 mg QID, read-out: Mean Cmax",72.2 ng/mL
same,Tmax,[6],51.4 min
same,Vd/F,[6],269 L
same,half-life,[6],95.4 min
same,AUC(0-t),"Day 1, Dose 4, fast acetylators, 20 mg QID, read-out: Mean AUC0-4",23.7 ng·h/mL
same,Cmax,"Day 1, Dose 4, fast acetylators, 20 mg QID, read-out: Mean Cmax",16.4 ng/mL
same,Tmax,[7],38.6 min
same,Vd/F,[7],1730 L
same,half-life,[7],89.4 min
same,AUC(0-t),"Day 1, Dose 4, slow acetylators, 20 mg QID, read-out: Mean AUC0-4",145 ng·h/mL
same,Cmax,"Day 1, Dose 4, slow acetylators, 20 mg QID, read-out: Mean Cmax",67.1 ng/mL
same,Tmax,[8],77.4 min
same,Vd/F,[8],338 L
same,half-life,[8],151 min
same,AUC(0-t),"Day 3, Dose 1, fast acetylators, 20 mg QID, read-out: Mean AUC0-4",24.9 ng·h/mL
same,Cmax,"Day 3, Dose 1, fast acetylators, 20 mg QID, read-out: Mean Cmax",24 ng/mL
same,Tmax,[9],48 min
same,Vd/F,[9],1390 L
same,half-life,[9],64.2 min
same,AUC(0-t),"Day 3, Dose 1, slow acetylators, 20 mg QID, read-out: Mean AUC0-4",130 ng·h/mL
same,Cmax,"Day 3, Dose 1, slow acetylators, 20 mg QID, read-out: Mean Cmax",81.2 ng/mL
same,Tmax,[10],60 min
same,Vd/F,[10],283 L
same,half-life,[10],96 min
same,AUC(0-t),"Day 3, Dose 1-4, fast acetylators, 20 mg QID, read-out: Mean AUC0-24",111 ng·h/mL
same,AUC(0-t),"Day 3, Dose 1-4, slow acetylators, 20 mg QID, read-out: Mean AUC0-24",701 ng·h/mL
same,AUC(0-t),"Day 3, Dose 2, fast acetylators, 20 mg QID, read-out: Mean AUC0-4",28.5 ng·h/mL
same,Cmax,"Day 3, Dose 2, fast acetylators, 20 mg QID, read-out: Mean Cmax",18.7 ng/mL
same,Tmax,[11],54 min
same,Vd/F,[11],1110 L
same,half-life,[11],80.4 min
same,AUC(0-t),"Day 3, Dose 2, slow acetylators, 20 mg QID, read-out: Mean AUC0-4",164 ng·h/mL
same,Cmax,"Day 3, Dose 2, slow acetylators, 20 mg QID, read-out: Mean Cmax",96.1 ng/mL
same,Tmax,[12],60 min
same,Vd/F,[12],260 L
same,half-life,[12],118 min
same,AUC(0-t),"Day 3, Dose 3, fast acetylators, 20 mg QID, read-out: Mean AUC0-4",25.8 ng·h/mL
same,Cmax,"Day 3, Dose 3, fast acetylators, 20 mg QID, read-out: Mean Cmax",21.9 ng/mL
same,Tmax,[13],31.9 min
same,Vd/F,[13],2200 L
same,half-life,[13],104 min
same,AUC(0-t),"Day 3, Dose 3, slow acetylators, 20 mg QID, read-out: Mean AUC0-4",156 ng·h/mL
same,Cmax,"Day 3, Dose 3, slow acetylators, 20 mg QID, read-out: Mean Cmax",80.9 ng/mL
same,Tmax,[14],48 min
same,Vd/F,[14],241 L
same,half-life,[14],97.8 min
same,AUC(0-t),"Day 3, Dose 4, fast acetylators, 20 mg QID, read-out: Mean AUC0-4",25.1 ng·h/mL
same,Cmax,"Day 3, Dose 4, fast acetylators, 20 mg QID, read-out: Mean Cmax",16.2 ng/mL
same,Tmax,[15],48 min
same,Vd/F,[15],1870 L
same,half-life,[15],109 min
same,AUC(0-t),"Day 3, Dose 4, slow acetylators, 20 mg QID, read-out: Mean AUC0-4",168 ng·h/mL
same,Cmax,"Day 3, Dose 4, slow acetylators, 20 mg QID, read-out: Mean Cmax",97.1 ng/mL
same,Tmax,[16],36 min
same,Vd/F,[16],376 L
same,half-life,[16],214 min
same,AUC(0-t),"Day 4, 20 mg single dose, fast acetylators, read-out: Mean AUC0-4",22.6 ng·h/mL
same,AUC(0-t),"Day 4, 20 mg single dose, fast acetylators, read-out: Mean AUC0-24",25.9 ng·h/mL
same,Cmax,"Day 4, 20 mg single dose, fast acetylators, read-out: Mean Cmax",13.6 ng/mL
same,Tmax,[17],54 min
same,Vd/F,[17],1770 L
same,half-life,[17],117 min
same,AUC(0-t),"Day 4, 20 mg single dose, slow acetylators, read-out: Mean AUC0-4",133 ng·h/mL
same,AUC(0-t),"Day 4, 20 mg single dose, slow acetylators, read-out: Mean AUC0-24",186 ng·h/mL
same,Cmax,"Day 4, 20 mg single dose, slow acetylators, read-out: Mean Cmax",72.5 ng/mL
same,Tmax,[18],72 min
same,Vd/F,[18],486 L
same,half-life,[18],194 min
same,Cmax,"Days 1-4, 20 mg QID, fast acetylators, read-out: plasma mean Cmax values, range",13.3 to 24.4 ng/mL
same,Cmax,"Days 1-4, 20 mg QID, slow acetylators, read-out: plasma mean Cmax values, range",67.1 to 97.1 ng/mL
